Where two headings read alike, the source gives them in different places.
Columns and labels:
serotonin transporter = molecular target: T1, serotonin transporter (Rattus norvegicus, UniProt P31652); assay: Displacement of 3H-paroxetine from male rat frontal cortical membranes (serotonin transporter affinity); type: binding; conditions: read-out: 5-HT Transporter Affinity KI
T1 construct: displace ^3H-paroxetine from male rat frontal cortical membranes; from tissue; host or cells: male rat frontal cortex membranes

human 5-HT1A receptors = molecular target: T2, human 5-HT1A receptors (Homo sapiens, UniProt P08908); assay: Displacement of [3H] 8-OHDPAT from 5-HT1A receptor, CHO cells stably transfected with human 5-HT1A receptors; type: binding; conditions: CHO cells with human 5-HT1A receptors, read-out: 5-HT1A Receptor Affinity KI
T2 construct: expressed in transfected cells; host or cells: CHO cells
T2 sequence (P08908 1-422): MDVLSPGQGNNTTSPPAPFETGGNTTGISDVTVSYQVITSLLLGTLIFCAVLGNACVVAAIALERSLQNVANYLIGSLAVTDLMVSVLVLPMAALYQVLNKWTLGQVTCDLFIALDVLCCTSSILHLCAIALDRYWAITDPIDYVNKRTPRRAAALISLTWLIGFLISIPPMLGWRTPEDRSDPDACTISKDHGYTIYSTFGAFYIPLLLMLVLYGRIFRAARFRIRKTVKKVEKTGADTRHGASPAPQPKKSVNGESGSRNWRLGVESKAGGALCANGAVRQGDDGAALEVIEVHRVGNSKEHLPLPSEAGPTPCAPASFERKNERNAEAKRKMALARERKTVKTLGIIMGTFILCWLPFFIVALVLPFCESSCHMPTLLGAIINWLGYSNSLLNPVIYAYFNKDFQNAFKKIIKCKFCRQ
From the text: High affinity for the serotonin 5-HT1A receptor was established by testing the claimed compound's ability to displace [^3H] 8-OHDPAT (dipropylaminotetralin) from the 5-HT1A serotonin receptor following a modification of the procedure of Hall et al., J. Neurochem. 44, 1685 (1985) which utilizes CHO cells stably transfected with human 5-HT1A receptors.

[1] = molecular target: T3, cloned human 5HT1A receptors (Homo sapiens, UniProt P08908); assay: 35S-GTPγS binding assay, membranes containing cloned human 5HT1A receptors; type: biochemical; conditions: for IC50: antagonist potency, reversal of the effects of the standard agonist 8-OHDPAT, read-out: 5-HT1A Function IC50
T3 construct: expressed in transfected cells
T3 sequence (P08908 1-422): T2 sequence (P08908 1-422)
Method: Antagonist activity at 5-HT1A receptors was established by using a ^35S-GTPγS binding assay similar to that used by Lazareno and Birdsall (Br. J. Pharmacol. 109: 1120, 1993), in which the test compound's ability to affect the binding of ^35S-GTPγS to membranes containing cloned human 5HT1A receptors was determined. Agonists produce an increase in binding whereas antagonists produce no increase but rather reverse the effects of the standard agonist 8-OHDPAT. The test compound's maximum inhibitory effect is represented as the Imax, while its potency is defined by the IC50.

[2] = maximum inhibitory effect, read-out: 5-HT1A Function (Imax)

T1 sequence (P31652 whole entry): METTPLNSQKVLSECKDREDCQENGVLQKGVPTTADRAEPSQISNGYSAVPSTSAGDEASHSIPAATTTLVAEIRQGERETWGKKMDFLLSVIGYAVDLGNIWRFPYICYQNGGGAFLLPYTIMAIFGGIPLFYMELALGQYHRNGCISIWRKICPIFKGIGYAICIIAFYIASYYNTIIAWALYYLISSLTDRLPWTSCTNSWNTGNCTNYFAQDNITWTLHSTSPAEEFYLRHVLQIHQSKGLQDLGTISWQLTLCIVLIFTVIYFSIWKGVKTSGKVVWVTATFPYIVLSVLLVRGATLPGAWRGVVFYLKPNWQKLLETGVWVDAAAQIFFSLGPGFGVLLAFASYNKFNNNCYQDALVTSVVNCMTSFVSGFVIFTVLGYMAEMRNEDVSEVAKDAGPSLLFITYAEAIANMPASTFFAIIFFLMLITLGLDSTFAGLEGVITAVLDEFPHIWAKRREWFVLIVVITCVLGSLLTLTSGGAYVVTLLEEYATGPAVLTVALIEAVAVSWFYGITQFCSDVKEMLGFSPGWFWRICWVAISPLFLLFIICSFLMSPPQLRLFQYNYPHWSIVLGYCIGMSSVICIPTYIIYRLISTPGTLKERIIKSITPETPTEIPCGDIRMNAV

| Structure (SMILES) | Ki (serotonin transporter) | Ki (human 5-HT1A receptors) | IC50 [1] | Emax [1, 2] | 5-HT1A Function (Imax) ([1]; maximum inhibitory effect) | EC50 ([1]; given as EC50, read-out: 5-HT1A Function EC50) | Emax ([1]; given as Emax, read-out: 5-HT1A Function Emax) |
| --- | --- | --- | --- | --- | --- | --- | --- |
| Cc1ccc2c3c(ccc2n1)OCC(CN(C)CCCc1c[nH]c2ccc(F)cc12)O3 (centres unmarked) [Example 7, N-[3-(5-Fluoro-1H-indol-3-yl)propyl]-N-methyl-N-(8-methyl-2,3-dihydro-[1,4]dioxino[2,3-f]quinolin-2-ylmethyl)amine] | 0.38 nM | 3.43 nM | 73.9 nM | 100% | – | – | – |
| Cc1ccc2c3c(ccc2n1)OC[C@H](CNCCc1coc2ccccc12)O3 [Example 17] | 46 nM | 0.63 nM | 52 nM | 78% | – | – | – |
| Cc1ccc2c3c(ccc2n1)OCC(CNCCCn1ccc2ccc(F)cc21)O3 (centres unmarked) [Example 33, [3-(6-Fluoro-indol-1-yl)-propyl]-(8-methyl-2,3-dihydro-[1,4]dioxino[2,3-f]quinolin-2-ylmethyl)amine] | 2.2 nM | 21.2 nM | 200 nM | 73.5% | – | – | – |
| Cc1ccc2c3c(ccc2n1)OCC(CNCCCc1c[nH]c2ccccc12)O3 (centres unmarked) [Example 6, N-[3-(1H-Indol-3-yl)propyl]-N-(8-methyl-2,3-dihydro-[1,4]dioxino[2,3-f]quinolin-2-ylmethyl)amine] | 3.57 nM | 0.39 nM | 31.3 nM | 86.6% | – | – | – |
| Cc1ccc2c3c(ccc2n1)OCC(CNCCc1c[nH]c2ccc(F)cc12)O3 (centres unmarked) [Example 4, N-[2-(5-Fluoro-1H-indol-3-yl)ethyl]-N-(8-methyl-2,3-dihydro-[1,4]dioxino[2,3-f]quinolin-2-ylmethyl)amine] | 47 nM | 4.19 nM | 909 nM | 58% | – | – | – |
| Cc1ccc2c3c(ccc2n1)OC[C@H](CN(C)CCCc1c[nH]c2ccc(C#N)cc12)O3 [Example 32] | 1 nM | 5.46 nM | 233 nM | 100% | – | – | – |
| CCN(CCCc1c[nH]c2ccc(F)cc12)C[C@H]1COc2ccc3nc(C)oc3c2O1 [Example 36, Ethyl-[3-(5-fluoro-1H-indol-3-yl)-propyl]-(2-methyl-7,8-dihydro-[1,4]dioxino[2,3-g][1,3]benzoxazol-8-ylmethyl)-amine] | 1.9 nM | 16.3 nM | 486 nM | 91.9% | – | – | – |
| Cc1ccc2c3c(ccc2n1)OCC(CNCCc1csc2ccccc12)O3 (centres unmarked) [Example 21, N-[2-(1-Benzothien-3-yl)ethyl]-N-(8-methyl-2,3-dihydro-[1,4]dioxino[2,3-f]quinolin-2-ylmethyl)amine] | 62 nM | 0.6 nM | 25.9 nM | 37.5% | – | – | – |
| Cc1ccc2c3c(ccc2n1)OC[C@H](CNCCCc1c[nH]c2ccc(F)cc12)O3 [Example 3, N-[3-(5-Fluoro-1H-Indolyl-3-yl)propyl]-N-(8-methyl-2,3-dihydro-[1,4]dioxino[2,3-f]quinolin-2-ylmethyl)amine] | 0.41 nM | 0.27 nM | 10.6 nM | 98.7% | – | – | – |
| Cc1ccc2c3c(ccc2n1)OCC(CNCCCCc1c[nH]c2ccc(F)cc12)O3 (centres unmarked) [Example 10, N-[4-(5-Fluoro-1H-indol-3-yl)butyl]-N-(8-methyl-2,3-dihydro-[1,4]dioxino[2,3-f]quinolin-2-ylmethyl)amine] | 1.29 nM | 1.78 nM | 71.1 nM | 61.5% | – | – | – |
| Cc1ccc2c3c(ccc2n1)OCC(CNCCCCn1ccc2ccc(F)cc21)O3 (centres unmarked) [Example 38, [4-(6-Fluoro-indol-1-yl)-butyl]-(8-methyl-2,3-dihydro-[1,4]dioxino[2,3-f]quinolin-2-ylmethyl)-amine] | 1.31 nM | 0.06 nM | 25.8 nM | 85.5% | – | – | – |
| Fc1ccc2[nH]cc(CCCNC[C@H]3COc4ccc5ncccc5c4O3)c2c1 [Example 14, N-(2,3-Dihydro-[1,4]dioxino[2,3-f]quinolin-2-ylmthyl)-N-[3-(5-fluoro-1H-indol-3-yl)propyl]amine] | 1 nM | 1.03 nM | 507 nM | 100% | – | – | – |
| Cc1ccc2c3c(ccc2n1)OCC(CNCCCCc1c[nH]c2ccccc12)O3 (centres unmarked) [Example 9, N-[4-(1H-indol-3-yl)butyl]-N-(8-methyl-2,3-dihydro-[1,4]dioxino[2,3-f]quinolin-2-ylmethyl)amine] | 4.7 nM | 0.46 nM | 23.7 nM | 95.2% | – | – | – |
| Cc1nc2ccc3c(c2o1)O[C@@H](CNCCCc1c[nH]c2ccc(C#N)cc12)CO3 [Example 30, 3-{3-[(2-Methyl-7,8-dihydro-[1,4]dioxino[2,3-g][1,3]benzoxazol-8-ylmethyl)amino]-propyl}-1H-indole-5-carbanitrile] | 1.8 nM | 5.35 nM | 68 nM | 73.1% | – | – | – |
| CCN(CCCCc1coc2ccccc12)C[C@H]1COc2ccc3nc(C)ccc3c2O1 [Example 52, N-[4-(1-Benzofuran-3-yl)butyl]-N-ethyl-N-{[(2S)-8-methyl-2,3-dihydro[1,4]dioxino[2,3-f]quinolin-2-yl]methyl}amine] | – | 2.08 nM | – | – | – | 526 nM | 97% |

The remaining compounds from weak to strong by Ki (human 5-HT1A receptors), led by results:

| Ki (serotonin transporter) | Ki (human 5-HT1A receptors) | IC50 [1] | Emax [1, 2] | 5-HT1A Function (Imax) ([1]; maximum inhibitory effect) | EC50 ([1]; given as EC50, read-out: 5-HT1A Function EC50) | Emax ([1]; given as Emax, read-out: 5-HT1A Function Emax) | Structure (SMILES) |
| --- | --- | --- | --- | --- | --- | --- | --- |
| 1 nM | 108 nM | 1090 nM | 100% | – | – | – | CCCN(CCCc1c[nH]c2ccc(F)cc12)CC1COc2ccc3nc(C)ccc3c2O1 (centres unmarked) [Example 45, [3-(5-Fluoro-1H-indol-3-yl)-propyl]-(8-methyl-2,3-dihydro-[1,4]dioxino[2,3-f]quinolin-2-ylmethyl)-propyl-amine] |
| 2.75 nM | 36 nM | – | – | – | – | – | Cc1ccc2c3c(ccc2n1)OCC(CN(C)CCCc1cn(C)c2ccc(F)cc12)O3 (centres unmarked) [Example 42, [3-(5-Fluoro-1-methyl-1H-indol-3-yl)-propyl]-methyl-(8-methyl-2,3-dihydro-[1,4]dioxino[2,3-f]quinolin-2-ylmethyl)-amine] |
| 0.24 nM | 21 nM | – | – | – | – | – | Cc1ccc2c3c(ccc2n1)OCC(CN(C)CCCCc1c[nH]c2ccc(C#N)cc12)O3 (centres unmarked) [Example 41, 3-{4-[Methyl-(8-methyl-2,3-dihydro-[1,4]dioxino[2,3-f]quinolin-2-ylmethyl)-amino]-butyl}-1H-indole-5-carbonitrile] |
| 1.6 nM | 5.16 nM | 412 nM | 100% | – | – | – | CN(CCCc1c[nH]c2ccc(F)cc12)CC1COc2ccc3ncccc3c2O1 (centres unmarked) [Example 15, N-(2,3-Dihydro-[1,4]dioxino[2,3-f]quinolin-2-ylmethyl)-N-[3-(5-fluoro-1H-indol-3-yl)propyl]-N-methylamine] |
| 0.43 nM | 4.65 nM | – | – | – | – | – | Cc1ccc2c3c(ccc2n1)OCC(CNC(C)CCc1c[nH]c2ccc(F)cc12)O3 (single isomer, unassigned; isomer b) [Example 11 Isomer B] |
| 1.62 nM | 1.68 nM | 27.8 nM | – | 78.3% | – | – | Cc1ccc2c3c(ccc2n1)OCC(CNC(C)CCc1c[nH]c2ccc(F)cc12)O3 (single isomer, unassigned; isomer a) [Example 11 Isomer A] |
| 0.9 nM | 1.64 nM | 55.8 nM | 94% | – | – | – | Cc1ccc2c3c(ccc2n1)OCC(CNCCCc1c[nH]c2ccc(C#N)cc12)O3 (centres unmarked) [Example 29, 3-{3-[(8-Methyl-2,3-dihydro-[1,4]dioxino[2,3-f]quinolin-2-ylmethyl)-amino]-propyl}-1H-indole-5-carbonitrile] |
| 2.35 nM | 0.78 nM | 19 nM | 82% | – | – | – | Cc1ccc2c3c(ccc2n1)OC[C@H](CNCCCc1csc2ccc(F)cc12)O3 [Example 51, N-[3-(5-Fluoro-1-benzothien-3-yl)propyl]-N-{[(2S)-8-methyl-2,3-dihydro[1,4]dioxino[2,3-f]quinolin-2-yl]methyl}amine] |
| 2.4 nM | 0.56 nM | 66.6 nM | 78.9% | – | – | – | Cc1ccc2c3c(ccc2n1)OCC(CNCCCCc1cn(C)c2ccc(F)cc12)O3 (centres unmarked) [Example 35, [4-(5-Fluoro-1-methyl-1H-indol-3-yl)-butyl]-(8-methyl-2,3-dihydro-[1,4]dioxino[2,3-f]quinolin-2-ylmethyl)-amine] |
| 5.5 nM | 0.28 nM | – | – | – | – | – | Cc1ccc2c3c(ccc2n1)OCC(CNCCCCc1coc2ccccc12)O3 (centres unmarked) [Example 28, N-[4-(1-Benzofuran-3-yl)butyl]-N-(8-methyl-2,3-dihydro-[1,4]dioxino[2,3-f]quinolin-2-ylmethyl)amine] |
| 14.6 nM | 0.2 nM | 50.1 nM | 95.4% | – | – | – | COc1cccc2c(CCCNCC3COc4ccc5nc(C)ccc5c4O3)coc12 (centres unmarked) [Example 19, N-[3-(7-Methoxy-1-benzofuran-3-yl)propyl]-N-(8-methyl-2,3-dihydro-[1,4]dioxino[2,3-f]quinolin-2-ylmethyl)amine] |
